{"source": "patent US20230131111A1", "about": "“BIODEGRADABLE POLYIMIDAZOLIUMS AND OLIGOIMIDAZOLIUMS” (Nanyang Technological University, priority 2020, published 2023)", "key": {"P. aeruginosa O1 biofilm": {"tested_on": "P. aeruginosa O1 biofilm", "assay": "MBEC antibiofilm assay", "settings": "4 h treatment"}, "3T3 cells": {"tested_on": "3T3 cells", "assay": "Mammalian cell cytotoxicity, MTT", "type": "cell-based, Mouse"}, "MRSA BAA39 biofilm": {"tested_on": "MRSA BAA39 biofilm", "assay": "MBEC antibiofilm assay", "settings": "4 h treatment"}, "MRSA BAA39": {"tested_on": "MRSA BAA39", "assay": "MIC broth microdilution", "type": "cell-based, Staphylococcus aureus"}, "E. coli (EC)": {"tested_on": "E. coli (EC)", "assay": "MIC broth microdilution", "type": "cell-based, Escherichia coli"}, "P. aeruginosa PAO1 [1]": {"tested_on": "P. aeruginosa PAO1", "assay": "MIC90 broth microdilution", "type": "cell-based, Pseudomonas aeruginosa"}, "S. aureus (SA)": {"tested_on": "S. aureus (SA)", "assay": "MIC broth microdilution", "type": "cell-based, Staphylococcus aureus"}, "A. baumannii AB-1 (MDR)": {"tested_on": "A. baumannii AB-1 (MDR)", "assay": "MIC90 broth microdilution", "type": "cell-based, Acinetobacter baumannii"}, "P. aeruginosa PAK pmrB12": {"tested_on": "P. aeruginosa PAK pmrB12", "assay": "MIC90 broth microdilution", "type": "cell-based, Pseudomonas aeruginosa"}, "[2]": {"tested_on": "K. pneumoniae BAK085 (MDR)", "assay": "MIC90 broth microdilution", "type": "cell-based, Klebsiella pneumoniae"}, "E. coli 958 (MDR)": {"tested_on": "E. coli 958 (MDR)", "assay": "MIC90 broth microdilution", "type": "cell-based, Escherichia coli"}, "K. pneumoniae KPNR (MDR)": {"tested_on": "K. pneumoniae KPNR (MDR)", "assay": "MIC90 broth microdilution", "type": "cell-based, Klebsiella pneumoniae"}, "[3]": {"tested_on": "Burkholderia thailandensis 700388", "type": "cell-based", "design": "MIC90 Burkholderia thailandensis 700388: unit not given here"}, "E. cloacae CRE (MDR)": {"tested_on": "E. cloacae CRE (MDR)", "assay": "MIC90 broth microdilution", "type": "cell-based, Enterobacter cloacae"}, "A. baumannii X26": {"tested_on": "A. baumannii X26", "assay": "MIC90 broth microdilution", "type": "cell-based, Acinetobacter baumannii", "design": "MIC90 A. baumanii X26 (MDR): unit not given here"}, "E. cloacae ECLOS (MDR)": {"tested_on": "E. cloacae ECLOS (MDR)", "assay": "MIC90 broth microdilution", "type": "cell-based, Enterobacter cloacae"}, "A549 cells": {"tested_on": "A549 cells", "assay": "Mammalian cell cytotoxicity, MTT", "type": "cell-based, Human"}, "[4]": {"tested_on": "K. pneumoniae SGH10 (clinical strain)", "assay": "MIC90 broth microdilution", "type": "cell-based, Klebsiella pneumoniae"}, "P. aeruginosa PAO1 [5]": {"tested_on": "P. aeruginosa PAO1", "assay": "Propidium iodide (PI) staining", "type": "cell-based, Pseudomonas aeruginosa", "settings": "1 h incubation", "protocol": "P. aeruginosa PAO1 was used in the PI experiments. Cells grown in MHB were harvested in mid-Log phase and resuspended in fresh MHB. PIM1 or colistin (positive control) was added at the indicated concentrations. After 1-hour incubation with the antimicrobials, the cell suspensions were sampled to determine cells numbers by plate counting. The remaining cells were washed with PBS and stained with PI (15 μg/mL) according to the manufacturer's protocol. Attune N×T Flow cytometry (Thermo Fisher Scientific, USA) was used to determine the percent of cells that had taken up PI (dead cells). A Zeiss LSM800 confocal microscope was used to image cells on a polylysine-coated petri-dish (MatTek Corporation, USA)."}, "A. baumannii X39": {"tested_on": "A. baumannii X39", "assay": "MIC90 broth microdilution", "type": "cell-based, Acinetobacter baumannii", "design": "MIC90 A. baumanii X39 (XDR): unit not given here"}, "HEK293 cells": {"tested_on": "HEK293 cells", "assay": "Mammalian cell cytotoxicity, MTT", "type": "cell-based, Human"}, "HepG2 cells": {"tested_on": "HepG2 cells", "assay": "Mammalian cell cytotoxicity, MTT", "type": "cell-based, Human"}, "K. pneumoniae (#13883)": {"tested_on": "K. pneumoniae (#13883)", "assay": "Neutropenic lung infection model", "type": "in vivo, BALB/c mice", "protocol": "Immunosuppression was induced by IP injection of cyclophosphamide (150 mg/kg) at day 4 and cyclophosphamide (100 mg/kg) at day 1 into BALB/c female mice (8-9 weeks of age) before infection was introduced. Lung infection was established by intratracheal delivery of MRSA USA300 or K. pneumoniae (#13883). […] The mice were monitored for survival over one week. In a separate experiment, mice lungs were harvested 26 h post-infection and homogenized, followed by plating to check the bacterial burden. The animal study protocols were approved by animal ethics and welfare committee at Ningbo University."}, "K. pneumoniae M7 (MDR)": {"tested_on": "K. pneumoniae M7 (MDR)", "assay": "MIC90 broth microdilution", "type": "cell-based, Klebsiella pneumoniae"}, "[6]": {"tested_on": "P. aeruginosa PAES (clinical)", "assay": "MIC90 broth microdilution", "type": "cell-based, Pseudomonas aeruginosa"}, "A. baumannii X40 (EDR)": {"tested_on": "A. baumannii X40 (EDR)", "assay": "MIC90 broth microdilution", "type": "cell-based, Acinetobacter baumannii"}, "P. aeruginosa PAER": {"tested_on": "P. aeruginosa PAER", "assay": "MIC90 broth microdilution", "type": "cell-based, Pseudomonas aeruginosa"}, "[7]": {"settings": "half-maximal inhibition of cell viability"}}, "data": [{"substance": "Benzalkonium chloride [C3]", "values": [{"measurement": "antibiofilm potency order", "setting": "P. aeruginosa O1 biofilm", "value": "P(ImC8)>P(ImC8-co-ImC8D)-50%>P(ImC6)>BAC"}, {"measurement": "IC50", "setting": "3T3 cells; mouse embryonic fibroblast 3T3 cells, MTT", "value": 10, "unit": "µg/mL"}, {"measurement": "antibiofilm efficacy rank", "setting": "MRSA BAA39 biofilm", "value": "P(ImC8)>P(ImC8-co-ImC8D)-50%˜P(ImC6)>BAC"}, {"measurement": "MIC MRSA BAA39", "setting": "MRSA BAA39", "value": 1, "unit": "µg/mL"}, {"measurement": "MIC EC", "setting": "E. coli (EC)", "value": 16, "unit": "µg/mL"}, {"measurement": "MIC PAO1", "setting": "P. aeruginosa PAO1 [1]", "value": 128, "unit": "µg/mL"}, {"measurement": "MIC SA", "setting": "S. aureus (SA)", "value": "1 to 2", "unit": "µg/mL"}]}, {"substance": "colistin", "values": [{"measurement": "MIC90 A. baumanii AB-1 (MDR)", "setting": "A. baumannii AB-1 (MDR)", "value": 2, "unit": "mg per mL"}, {"measurement": "MIC90 A. baumannii AB-1 (MDR)", "setting": "A. baumannii AB-1 (MDR)", "value": 2, "unit": "µg/mL"}, {"measurement": "MIC90 P. aeruginosa PAK pmrB12", "setting": "P. aeruginosa PAK pmrB12", "value": 16, "unit": "µg/mL"}, {"measurement": "MIC90 K. pneumoniae BAK085 (MDR)", "setting": "[2]", "value": 2, "unit": "µg/mL"}, {"measurement": "IC50 Mouse fibroblast (3T3)", "setting": "3T3 cells; [7]", "value": ">1024", "unit": "μg per mL"}, {"measurement": "MIC90 E. coli 958 (MDR)", "setting": "E. coli 958 (MDR)", "value": 2, "unit": "µg/mL"}, {"measurement": "MIC90 K. pneumoniae KPNR (MDR)", "setting": "K. pneumoniae KPNR (MDR)", "value": 2, "unit": "µg/mL"}, {"measurement": "MIC90 B. Thailandensis 700388", "setting": "[3]", "value": ">128", "unit": "µg/mL"}, {"measurement": "MIC90 Burkholderia thailandensis 700388", "setting": "[3]; naturally colistin-resistant", "value": ">128"}, {"measurement": "MIC90 E. cloacae CRE (MDR)", "setting": "E. cloacae CRE (MDR)", "value": 2, "unit": "µg/mL"}, {"measurement": "MIC90 A. baumanii X26 (MDR)", "setting": "A. baumannii X26", "value": 2}, {"measurement": "MIC90 A. baumannii X26 (EDR)", "setting": "A. baumannii X26", "value": 2, "unit": "µg/mL"}, {"measurement": "MIC90 E. cloacae ECLOS (MDR)", "setting": "E. cloacae ECLOS (MDR)", "value": 16, "unit": "µg/mL"}, {"measurement": "IC50 Human epithelial (A549)", "setting": "A549 cells; MTT", "value": ">1,024 μg/ml"}, {"measurement": "IC50 Human epithelial (A549)", "setting": "A549 cells; [7]", "value": ">1024", "unit": "μg per mL"}, {"measurement": "MIC90 K. pneumoniae SGH10 (clinical strain)", "setting": "[4]", "value": 2, "unit": "µg/mL"}, {"measurement": "MIC90 P. aeruginosa PAO1", "setting": "P. aeruginosa PAO1 [1]", "value": 2, "unit": "µg/mL"}, {"measurement": "propidium iodide uptake", "setting": "P. aeruginosa PAO1 [5]", "value": "almost all cells treated with colistin were stained"}, {"measurement": "MIC90 A. baumanii X39 (XDR)", "setting": "A. baumannii X39", "value": "4-8"}, {"measurement": "MIC90 A. baumannii X39 (EDR)", "setting": "A. baumannii X39", "value": "4 to 8", "unit": "µg/mL"}, {"measurement": "IC50 Human kidney (HEK293)", "setting": "HEK293 cells; MTT", "value": 64, "unit": "µg/mL"}, {"measurement": "IC50 Human kidney (HEK293)", "setting": "HEK293 cells; [7]", "value": 64, "unit": "μg per mL"}, {"measurement": "IC50 Human liver (HepG2)", "setting": "HepG2 cells; MTT", "value": ">1024", "unit": "µg/mL"}, {"measurement": "IC50 Human liver (HepG2)", "setting": "HepG2 cells; [7]", "value": ">1024", "unit": "μg per mL"}, {"measurement": "survival", "setting": "K. pneumoniae (#13883); 20 mg/kg intratracheal, one week", "value": "survived"}, {"measurement": "reduction of K. pneumoniae in lung", "setting": "K. pneumoniae (#13883); single 20 mg/kg intratracheal, versus infection control", "value": "similar"}, {"measurement": "MIC90 K. pneumoniae M7 (MDR)", "setting": "K. pneumoniae M7 (MDR)", "value": "16 to 32", "unit": "µg/mL"}, {"measurement": "MIC90 P. aeruginosa PAES (clinical)", "setting": "[6]", "value": 2, "unit": "µg/mL"}, {"measurement": "MIC90 A. baumannii X40 (EDR)", "setting": "A. baumannii X40 (EDR)", "value": 8, "unit": "µg/mL"}, {"measurement": "MIC90 P. aeruginosa PAER", "setting": "P. aeruginosa PAER", "value": 1, "unit": "mg per mL"}, {"measurement": "MIC90 P. aeruginosa PAER (MDR)", "setting": "P. aeruginosa PAER", "value": 1, "unit": "µg/mL"}]}]}
